The text below walks through data of CN105732584A, “一种达比加群酯2-酮戊二酸盐晶型i及其制备方法和用途” (Tianjin Institute of Pharmaceutical Research Co Ltd, priority 2014, dated 2016).

Values after ≈ are worked out from the molar mass of the structure shown. A value given as a limit tells only on which side of the number the result lay.

Type in all cases: physicochemical
Series [1] can be described thus: Stability test (stress factors): content determination by HPLC.
The nature of series [2]: Stability test (stress factors): change of appearance.
Series [3] is described as follows: Solubility in water at 25℃. The conditions noted are these: H2O.
Setting [4] is: 7 days, high temperature and high humidity.
Setting [5] is: high temperature and high humidity.

What is called amount remaining is what is left of the initial amount, in per cent. Read a low amount remaining as a greater loss. The solubility is the dissolved amount per volume that the medium holds. A low value points to little dissolved substance.

As to `CCCCCCOC(=O)N=C(N)c1ccc(NCc2nc3cc(C(=O)N(CCC(=O)OCC)c4ccccn4)ccc3n2C)cc1.O=C(O)CCC(=O)C(=O)O` [达比加群酯2-酮戊二酸盐晶型I, 3-[[[2-[[[4-[[[(己氧基)羰基]氨基]亚氨甲基]苯基]氨基]甲基]-1-甲基-1H-苯并咪唑-5-基]羰基](吡啶-2-基)氨基]丙酸乙酯2-酮戊二酸盐], in series [1] (setting [4]), the content remaining was roughly 98%. Further, the “change of content with time (in words)” value in series [1] (sealed high temperature, and high temperature with high humidity) is “含量随时间变化较小”. The “change of colour/appearance (in words)” value in series [2] (setting [5]) was “颜色虽有变化但不大”; in series [2] (sealed, high temperature), “颜色几乎无变化”.

As to `CCCCCCOC(=O)NC(=N)c1ccc(NCc2nc3cc(C(=O)N(CCC(=O)OCC)c4ccccn4)ccc3n2C)cc1` [达比加群酯甲磺酸盐], in series [1] (setting [4]), the content remaining is less than 20%. In addition, the “stability (in words)” value in series [1] (setting [5]) is recorded as “极不稳定”. For the same molecule, in series [1] (high temperature and humidity storage, 7 days, high temperature and high humidity), the share remaining at 168 h was less than 20%. The “change of colour/appearance (in words)” value in series [2] (setting [5]) was “颜色变化很明显且出现板结现象”; in series [2] (sealed, high temperature), “颜色随时间产生明显变化”. The “moisture absorption (in words)” value in series [2] (high temperature and high humidity, concluded from colour change and caking) is “吸潮严重”. Further, the concentration in solution in series [3] (solubility) was 1800 µg/mL (≈ 2870 µM).
